Converted amounts (≈) assume the structure as drawn. Read-outs that look alike come from different tables or passages of the source.
Key:
HSV-1 [1] = test: HSV-1 plaque assay, infected Vero cells, moi 1 (Example 3); type: cell-based; details: 50 μM, data not shown
Experimental: Cultures of African green monkey kidney cells (Vero) cells, obtained from the American Type Culture Collection, Rockville, Md. were grown to confluence in Medium 199 supplemented with 5% fetal bovine serum, 0.075% NaHCO3, and 50 μg/ml gentamycin sulfate in 25 cm^2 tissue culture flasks. Cells were infected with HSV-1 at a multiplicity of infection (moi) of one and incubated at room temperature for one hour to allow for virus attachment to and penetration of the cell. Under these conditions, approximately half of the cells are infected with virus. Thereafter, the cultures were rinsed three time with media and incubated in medium containing 50 μM or 75 μM 4, 4′-dihydroxytolan prepared in 0.2% dimethyl-sulfoxide (DMSO). Controls were treated identically, but were incubated without the dihyroxylated tolan. For purposes of comparison, HSV cell were also inoculated in the presence of 52.5 μM 4,4′-dihydroxystilbene. Due to the higher cell toxicity of the stilbene, cells were not incubated in the presence of 75 μM dihydroxystilbene.
Upon addition of the medium to the cultures and at 24 hours time periods thereafter, i.e., 0 hours, 24 hours, 48 hours, and 72 hours after addition of the drug, cells and medium were frozen at −70° C. Samples were then thawed, sonicated and titrated on Vero cells to determine the number of plaque forming units (pfu's) of virus produced by each culture.

Vero cells = test: MTT colorimetric cell toxicity assay; type: cell-based, African green monkey
Experimental: Cell toxicity of the tolans 4,4′-dihydroxytolan (“Tolan-5”), 3,4′,5-trihydroxytolan (“Tolan-10”) and 4-hydroxy-4′-trifluoromethyltolan (“Tolan-11”) was determined using an MTT assay. In this assay, cells are exposed to MTT, 3-(4,5-dimethylthiazol-2-yl)-2,5-diphenyltetrazolium bromide, which is taken into the cells and reduced by mitochondrial dehydrogenase to a purple formazan, a large molecule which is unable to pass through intact cell membranes, and therefore accumulates in healthy cells. The ability of cells to reduce MTT is an indication of mitochondrial integrity and activity, which may be interpreted as a measure of viability. Solubilization of the cells results in the liberation of the product which can readily be detected spectrophotometrically.
Various concentrations of Tolan-5, Tolan-10 and Tolan-11 were added to 96 well tissue culture plates that had been seeded with Vero cells. The plates were then incubated at 37° C. in 5% CO2/95% air for 24, 48 and 72 hours. At the end of each time point, 50 μl of MTT (1 mg/ml) was added to the tissue culture plates which were then incubated for an additional four hours. At the end of that time, dimethyl sulfoxide (DMSO) was added to dissolve the cells and formazan, and the plates were read spectrophotometrically at 540 nm. […] Presented in Table I below are the toxicity results for Tolan-5, Tolan-10, and Tolan-11 measured at 24, 48 and 72 hours of treatment.

HSV-1 [2] = test: Inhibition of HSV-1 replication in vitro, plaque assay (Example 9); type: cell-based; details: for HSV-1 production: Vero cells, moi 1, up to 72 hours
Experimental: Tissue culture cells were infected with HSV-1 and incubated in solutions containing Tolan-5, Tolan-10 and Tolan-11. The concentrations used ranged from one-half to three-quarters of the calculated CD50 for the respective tolan at 48 hours of treatment. Specifically, Vero cells were infected with HSV-1 at a multiplicity of infection of one for one hour. At the end of that time, the cultures were rinsed with media and fresh media containing various concentration of the respective tolan were added. Infected control cultures were incubated in media lacking hydroxylated tolan. At 1, 24, 48, and 72 hours after infection, samples were frozen at −70° C. until assayed for new virus production. Virus production was quantified by the plaque assay for each time point of infection. The results, which are expressed as plaque forming units per milliliter (pfu/ml).

HSV-1 [3] = test: HSV-1 skin scratch infection in hairless mice, topical treatment (Example 10); type: in vivo, SKH-1 hairless mice; details: for severity of HSV lesions: topical, three times a day for five days, versus untreated or DMSO only; for animals that perished within 11 days after infection: controls 50% died
Experimental: Female SKH-1 hairless mice 4–5 weeks old were lightly anesthetized and a scratch approximately 2–3 mm long and 0.25 mm deep was made on the lateral dorsal aspect of the neck. The scratch was infected with 10^6 plaque forming units of HSV-1. One hour later, the infected scratch area was treated with a 5% or 10% solution of Tolan-10 in DMSO. This treatment was repeated three times a day for five days. There were at least six mice in each treatment group. Untreated mice and mice treated with DMSO only were used as controls. Beginning on day 1 and continuing for 10–11 days, the scratch site was examined daily for evidence of an HSV infection and scored according to the following schedule: • 0=no visible change on skin by scratch • 1+=papules around scratch • 2+=papules around scratch ulcerate with scab formation • 3+=ulcerative zosterform spread along peripheral nerves to flank of animal • 4+=ulcerative lesions open on flank • 5+=death/sacrifice The data was grouped according to treatment and statistically analyzed for significance.

[4] = tested on: Neisseria gonorrhea CDC 98; test: Growth inhibition on chocolate agar plates; type: cell-based
Experimental: (§1) Various concentrations of the trihydroxytolan Tolan-10 were incorporated into chocolate agar plates that were prepared using standard procedures. The trihydroxylated tolan was first dissolved in DMSO and medium and then added to liquid chocolate agar, which was then poured into petri plates and allowed to solidify. The highest concentration of DMSO in the agar was 0.5%. Control plates containing chocolate agar and DMSO at a final concentration of 0.5% were also prepared.
Neisseria gonorrhea CDC 98 was obtained from Difco Laboratories. The authenticity of the bacterium was confirmed utilizing standard microbiological techniques of identification. Cultures of the bacterial isolate were inoculated onto fresh plates of solidified chocolate agar and then 24 hours later, a suspension was made from isolated colonies.
(§2) 10 μl aliquots of the suspension were spread evenly across the surface of solidified control chocolate agar lacking tolan and the surface of solidified chocolate agar containing Tolan-10 at final concentrations ranging from 1 to 125 μg/ml. Thereafter, the agar plates were incubated at 37° C. with or without 5% CO2. All plates were visually examined for growth of the bacterium 24 hours later to determine the concentration of the tri-hydroxylated tolan that inhibits growth by 50% (MIC50) as well as the concentration which inhibits any visible growth (MIC100).

Candida albicans = test: Growth inhibition on agar plates; type: cell-based
Experimental: as §1, §2
(§3) The effect of the same concentrations of Tolan-10 on the growth of Escherichia coli, Staphylococcus aureus, Streptococcus pyogenes, Pseudomonas aeruginosa, Neisseria meningiditis and Candida albicans was also determined. […] The IC50 value of the tri-hydroxylated tolan for this bacterium at 24 hours of treatment was 50 μg/ ml and the IC100 value was 100 μg/ml. In contrast, Tolan 10, at the highest concentration tested, had no effect on the other microorganisms listed.

Escherichia coli = test: Growth inhibition on agar plates; type: cell-based
Experimental: as §1, §2, §3

Neisseria meningiditis = test: Growth inhibition on agar plates; type: cell-based
Experimental: as §1, §2, §3

Pseudomonas aeruginosa = test: Growth inhibition on agar plates; type: cell-based
Experimental: as §1, §2, §3

Staphylococcus aureus = test: Growth inhibition on agar plates; type: cell-based
Experimental: as §1, §2, §3

Streptococcus pyogenes = test: Growth inhibition on agar plates; type: cell-based
Experimental: as §1, §2, §3

Oc1ccc(C=Cc2ccc(O)cc2)cc1 [4,4′-dihydroxystilbene, reference compound]
effect on virus production (HSV-1 [1]): no effect

Oc1ccc(C#Cc2ccc(C(F)(F)F)cc2)cc1 [Tolan-11, 4-hydroxy-4′-trifluoromethyltolan]
toxicity (in words) (Vero cells): more toxic than the other hydroxylated tolans
CD50 (Vero cells; 24 hours): 72.1 µM
CD50 (Vero cells; 48 hours): 48.2 µM
CD50 (Vero cells; 72 hours): 47.1 µM
HSV-1 production (HSV-1 [2]): inhibited HSV-1 production
effect on HSV-1 production (HSV-1 [2]; concentration of less than 48 μm): little to no effect

Oc1ccc(C#Cc2cc(O)cc(O)c2)cc1 [Tolan-10, 3,4′,5-trihydroxytolan]
toxicity (in words) (Vero cells): very little toxicity
CD50 (Vero cells; 24 hours): >200 µM
CD50 (Vero cells; 48 hours): >200 µM
CD50 (Vero cells; 72 hours): >200 µM
estimated CD50 (Vero cells; summary of Table 1): > 200 μm
effectiveness against the virus over concentrations (HSV-1 [2]; 350 μm to 175 μm): equally effective against the virus at all concentrations
HSV-1 production (HSV-1 [2]): inhibited HSV-1 production
severity of HSV lesions (HSV-1 [3]; 5% solution in DMSO): significantly reduced the severity of HSV lesions
animals that perished within 11 days after infection (HSV-1 [3]; 5%): none
severity of HSV lesions (HSV-1 [3]; 10% solution in DMSO): significantly reduced the severity of HSV lesions
animals that perished within 11 days after infection (HSV-1 [3]; 10%): none
effectiveness of 10% compared with 5% (HSV-1 [3]; particularly days 6–10, not significantly different): slightly more effective than 5% Tolan-10
IC100 value ([4]; 24 hours of treatment): 100 µg/mL
IC100 ([4]; N. gonorrhoeae, agar, 24 hours): 100 mg/L
IC50 ([4]; N. gonorrhoeae, agar, 24 hours, read-out: IC50): 50 µg/mL (≈ 221 µM)
IC50 ([4]; Neisseria, CDC98, 24 hours of treatment, read-out: IC50 value): 50 µg/mL (≈ 221 µM)
selectivity of growth inhibition ([4]; versus the other microorganisms tested): selectively inhibited
IC100 (Candida albicans; C. albicans): >125 mg/L
IC50 (Candida albicans; Candida albicans, C. albicans): > 125 µg/mL
effect on growth (Candida albicans; highest concentration tested): no effect
IC100 (Escherichia coli; E. coli): >125 mg/L
IC50 (Escherichia coli; Escherichia coli, E. coli): > 125 µg/mL
effect on growth (Escherichia coli; highest concentration tested): no effect
IC50 (Neisseria meningiditis; Neisseria, N. meningitides): > 125 µg/mL
effect on growth (Neisseria meningiditis; highest concentration tested): no effect
IC100 (Pseudomonas aeruginosa; P. aeruginosa): >125 mg/L
IC50 (Pseudomonas aeruginosa; Pseudomonas aeruginosa, P. aeruginosa): > 125 µg/mL
effect on growth (Pseudomonas aeruginosa; highest concentration tested): no effect
IC100 (Staphylococcus aureus; S. aureus): >125 mg/L
IC50 (Staphylococcus aureus; Staphylococcus aureus, S. aureus): > 125 µg/mL
effect on growth (Staphylococcus aureus; highest concentration tested): no effect
IC100 (Streptococcus pyogenes; S. pyogenes): >125 mg/L
IC50 (Streptococcus pyogenes; Streptococcus pyogenes, S. pyogenes): > 125 µg/mL
effect on growth (Streptococcus pyogenes; highest concentration tested): no effect
